The values that follow are results of earlier work, collected in patent US20180203025A1, “HDL THERAPY MARKERS” (Cerenis Therapeutics Holding SA, priority 2014, published 2018).

For series [1] the following is noted: ACS patients, cited from earlier work.
For series [2] the following is noted: associated to statin; cited from earlier work.
For series [3] the following is noted: compared to atorvastatin; cited from earlier work.
The conditions of series [4]: added to 80 mg atorvastatin, cited from earlier work.

Like-named read-outs stand apart in the source and are kept apart here.

In the case of `CCC(CC)CC1(C(=O)Nc2ccccc2SC(=O)C(C)C)CCCCC1` [dalcetrapib], in series [1], the ApoA-I increase is reported as 18%, the HDL-cholesterol increase result is reported as “about 30%” and the LDL-cholesterol entry is “no changes in LDL-cholesterol”. The “clinical benefit compared to placebo” value in series [1] (interim analysis) is listed as “no benefit”. For the same compound, the LDL-cholesterol entry in series [2] is listed as “remains unchanged”.
For the compound `COc1cc(F)c(C(C)C)cc1-c1ccc(C(F)(F)F)cc1CN1C(=O)O[C@H](c2cc(C(F)(F)F)cc(C(F)(F)F)c2)[C@@H]1C` [anacetrapib], in series [3], the HDL-cholesterol increase entry was “about 140%” and the LDL-cholesterol lowering is 40%. Also, in series [2], the “further decrease of LDL-cholesterol” value was “about 40%”.
`CCOC(=O)N1c2ccc(C(F)(F)F)cc2[C@@H](N(Cc2cc(C(F)(F)F)cc(C(F)(F)F)c2)C(=O)OC)C[C@H]1CC` [torcetrapib]: in series [4] (compared to Atorvastatin alone), the HDL-cholesterol increase was 80% and the LDL-cholesterol decrease is listed as 25%. Moreover, the mortality and morbidity entry in series [4] (15 067 patients) was “increase of the mortality and morbidity”. The “further decrease of LDL-cholesterol” value in series [2] was “about 40%”.
On to `Cc1cc(C)c2c(c1)[C@@H](N(Cc1cc(C(F)(F)F)cc(C(F)(F)F)c1)c1nnn(C)n1)CCCN2C[C@H]1CC[C@H](C(=O)O)CC1` [evacetrapib], for which the “further decrease of LDL-cholesterol” value in series [2] is reported as “about 40%”.
